Data from US20220062233A1 (The Board of Trustees of the Leland Stanford Junior …, priority 2018, published 2022).
pIC50: −log10 of the molar value.

Experiments:
[1] = tested on: Lymphoblastoid cells (GM14044); assay: LBC cell viability (Cell Titer-Glo); format: cell-based, human; settings: at the concentration of IC20, 3-day compound treatment
Protocol: Cell viability was determined by Cell Titer-Glo reagent (Promega, PRG9243). After 3-day compound treatment, 15 μl of cell suspension was taken out from plate and incubated with 10 μl of CTG reagent. The values of reaction mixture were detected by Tecan.

mutant HTT [2] = assay: Mutant HTT assay in lymphoblastoid cells (LBC), Western blot; format: cell-based, human; settings: read-out: LBC IC20 (nM) mHTT, 3 days compound treatment
Protocol: (§1) B. Mutant and Wild-Type HTT Assay in Lymphoblastoid Cells (LBC)
(§2) a. Cell Culturing and Compound Treatment
(§3) Lymphoblastoid cells derived from a Huntington's disease patient with 250 CAG repeats in the mutant HTT allele (GM14044 from Coriell Institute) were cultured in RPMI 1640 (Corning Cellgro, 10-040-CV) containing fetal bovine serum (Atlanta Biologicals, S11150). 4×10^5 cells were seeded on a 24-well plate and incubated with testing compound for 3 days. The cell suspension was then transferred to a 1.5 ml Eppendorf tube. Cells were collected by centrifugation and washed once with PBS. After all liquid was removed, the cell pellet was placed at −80° C. for at least 10 minutes. Lysis buffer [30 mM Tris-HCl (pH 8.0), 5 mM NaCl, 0.1% Triton X-100] with the proteinase inhibitor cocktail (P8340 from Sigma-Aldrich) was then added to the cells. Following centrifugation (14 k rpm for 15 min at 4° C.), the supernatant was collected. The protein concentrations were determined by BCA assay (Pierce, ThermoFisher).
(§4) Equal amounts of protein were loaded onto 4-12% gel (Invitrogen, WG1403A). After electrophoresis, the gels were transferred to nitrocellulose membranes by wet transfer at 72V for 3 hrs. […] The protein levels of mutant HTT, wild-type HTT, TBP, and tubulin were determined by immunoblotting with anti-polyQ specific antibody (clone MW1), anti-Huntingtin antibody (Abcam, ab45169), anti-TBP antibody (Sigma, T1827) and anti-alpha tubulin antibody (Sigma, T9026). Blots were imaged on a Li-Cor Odyssey infrared imager. The band intensities were determined by Li-Cor Odyssey software.

mutant HTT [3] = assay: Mutant HTT assay in induced pluripotent stem cells (iPSC); format: cell-based, human; settings: HD patient iPSCs, one day incubation, read-out: iPSC IC20 (nM) mHTT
Protocol: C. Mutant HTT Assay in Induced Pluripotent Stem Cells (iPSC) a. Cell Culturing and Compound Treatment
Huntington's disease patient iPSCs (ND50036 from NINDS) were detached into single cells by Accutase (25058CI from Corning), counted and plated on a 24-well plate coated with Matrigel (354277 from Corning) at density of 7,000 cells/well. After 48 hrs, compounds were added to the cell culture medium mTeSR1 (85850 from StemCell Technologies) and the cells were incubated for one day. The medium was then removed, and the cells were washed with PBS. After all liquid was removed, the plate was placed at −80° C. overnight. Lysis buffer [30 mM Tris-HCl (pH 8.0), 5 mM NaCl, 0.1% Triton X-100] with the complete proteinase inhibitor cocktail (5892791001 from Sigma-Aldrich) was then added to the cells. Cell samples were lysed on an orbital plate shaker at 4° C. at 700 rpm for 30 min. The supernatants from spinning (14 k rpm for 10 min) were collected. The protein concentrations were determined by BCA assay (23225 from Pierce, ThermoFisher). […]
b. Detection of Mutant HTT Protein
Equal amounts of protein lysate collected from each sample were added to a 96-well plate that had been coated with a human HTT specific monoclonal antibody. After washing away any unbound substances, a biotinylated anti-human mutant HTT specific detection antibody was added. Streptavidin-horseradish peroxidase was subsequently added, followed by TMB Substrate Solution, which yielded a blue product that turns yellow when the Stop Solution was added. The intensity of the color measured was in proportion to the amount of mutant HTT bound in the initial step. The mutant HTT values are then interpolated from a standard curve.

M2-8 cells = assay: M2-8 Cell viability Assay; format: cell-based; settings: at the concentration of 1000 nM
[4] = molecular target: T1, interaction between Supt4h and NGN (subunit of Supt5h) (Homo sapiens, UniProt O00267+P63272); assay: Split Gaussia luciferase complementation assay (M2-8 Luciferase); format: cell-based; settings: M2-8 cells
T1 construct: expressed in transfected cells
Protocol: A. Split Gaussia Luciferase Complementation Assay […]
i: pNBR-X1-Supt4-Gluc1 and pNEBR-X1-NGN-Gluc2
The HA-Supt4h and Flag-NGN fragments are amplified by PCR using the plasmid pHA-Supt4h-YC and pFlag-NGN-YN and sub-cloned individually into pcDNA3.1-Gluc1 and pcDNA3.1-Gluc2 (described in “A highly sensitive protein-protein interaction assay based on Gaussia luciferase” published at Nat Methods. 2006 December; 3(12):977-9. Epub 2006 Nov. 12). Then HA-Supt4h-Gluc1 and Flag-NGN-Gluc2 are amplified by PCR and inserted to pNEBR-X1-Hygro (New England BioLabs), which contain RheoSwitch responsive element under the control of RheoSwitch ligand. […]
ii: pNEBR-X1-Supt4h-G1-NGN-G2
PCR products containing the sequence from 5XRE to polyA in pNEBR-X1-NGN-G2 are inserted to pNEBR-X1-Supt4h-G1 at Pcil site to generate Supt4h-G1 and NGN-G2 bidirectional under their own RheoSwitch responsive element and polyA in the same plasmid. […]
b. Stable Cloned Cell Line i: 293-R1 is a cloned cell line which is engineered to constitutively express RSL1 receptor/activator by transfecting HEK 293 cells with pNEBR-R1 plasmid (New England BioLabs) and selected with blasticidin. […]
ii: M2-8 is a cloned 293-R1 cell which can inducibly express pNEBR-X1-Supt4h-G1-NGN-G2 by addition of RSL1. Two point mutations ([…] and M110I) are introduced to the GL1 and GL2 for better stability according to “A high-throughput cell-based Gaussia luciferase reporter assay for identifying modulators of fibulin-3 secretion” published in J Biomol Screen. 2013 July; 18(6):647-58. The cell line is selected by hygromycin. […]
c. Cell Culture and Transfection Condition
All the HEK-293 cells and derivative clones are maintained in DMEM containing 10% FBS plus corresponding antibiotics (250 μg/ml hygromycin B, 10 μg/ml blasticidin or both) at 37° C., 5% CO2. All the transfections are done by using Lipofectamine 2000 (Invitrogen) according to the manufacturer's instructions. […]
d. Bioluminescence Assay from Cell Lysates
Plasmids harboring the Gluc1 and Gluc2 are co-transfected in a 1:1 ratio into 293-R1 cells plated on tissue culture treated 24-well plates using Lipofectamine 2000 according to the manufacturer's instructions. For stable M2-8 cells, the cells are directly plated into 96-well or 384-well white plates. Twenty-four hours later, RheoSwitch ligand with or without test compound is added to the cells for induction/drug treatment. After 24 hr, the cells are washed with PBS and the plate was stored at −20° C. overnight. Lysis buffer [30 mM Tris-HCl (pH 8.0) 5 mM NaCl, 0.1% Triton X-100] with 10 μg/ml native coelenterazine (Nanolight Technology) is then added to the cells at room temperature for one hour in the dark. After shaking for about 1 min, 40 μl of cell lysate are transferred to a white 96-well plate. For M2-8 in white micro plate, no transfer is needed. Signal intensities (integrated 100 ms) were read on Tecan Infinite M200 or M1000.
The split Gaussia luciferase complementation assay measures the interaction between Sup4h and NGN. NGN is the subunit of Supt5h that binds to Supt4h.

wild-type HTT = assay: Wild-type HTT assay in lymphoblastoid cells (LBC), Western blot; format: cell-based, human; settings: 3 days compound treatment, read-out: LBC IC20 (nM) wtHTT
Protocol: as §1, §2, §3, §4

[5] = tested on: Huntington's disease patient iPSCs (ND50036); assay: iPSC viability at IC20; format: cell-based, human; settings: at the concentration of IC20

`C#Cc1ccc2[nH]c3c(c2c1)CCC[C@H]3NCc1ccccc1` [Compound 5, (R)—N-benzyl-6-ethynyl-2,3,4,9-tetrahydro-1H-carbazol-1-amine] was tested, and the “LBC viability at IC20” value [1] was “* (cell viability is greater than 60% at the concentration of IC20)”, the IC20 (mutant HTT [2]) was < 100 nM and the IC20 (mutant HTT [3]; numeric bounds) was > 100 nM. For the same compound, the “M2-8 Cell viability” value (M2-8 cells) was “+ (cell viability is greater than 50% at the concentration of 1000 nM)”, the pIC50 [4] was ≥ 7.00 and the IC20 (wild-type HTT) was > 1000 nM.
`OCc1ccc(CN[C@@H]2CCCc3c2[nH]c2ccc(Br)nc32)cc1` [Compound 65] was tested, and the “iPSC viability at IC20” value [5] was “+ (cell viability is greater than 75% at the concentration of IC20)”, the “LBC viability at IC20” value [1] was “* (cell viability is greater than 60% at the concentration of IC20)” and the IC20 (mutant HTT [2]) was 301 to 1000 nM. For the same compound, the IC20 (mutant HTT [3]; class symbols) was < 100 nM, the “M2-8 Cell viability” value (M2-8 cells) was “+ (cell viability is greater than 50% at the concentration of 1000 nM)” and the pIC50 [4] was ≥ 7.00. For the same compound, the IC20 (wild-type HTT) was > 1000 nM.
With `Brc1ccc2[nH]c3c(c2c1)CCC[C@H]3NCc1cccc(I)c1` [Compound 41, (R)-6-bromo-N-(3-iodobenzyl)-2,3,4,9-tetrahydro-1H-carbazol-1-amine] the “LBC viability at IC20” value [1] was “* (cell viability is greater than 60% at the concentration of IC20)”, the IC20 (mutant HTT [2]) was 101 to 300 nM and the IC20 (mutant HTT [3]; numeric bounds) was > 100 nM. For the same compound, the “M2-8 Cell viability” value (M2-8 cells) was “+ (cell viability is greater than 50% at the concentration of 1000 nM)”, the pIC50 [4] was ≥ 7.00 and the IC20 (wild-type HTT) was > 1000 nM.
In the case of `CC(C)(O)c1cccc(CN[C@@H]2CCCc3c2[nH]c2ccc(Br)cc32)c1` (single isomer, unassigned) [Compound 58], the “LBC viability at IC20” value [1] was “* (cell viability is greater than 60% at the concentration of IC20)”, the IC20 (mutant HTT [2]) was 101 to 300 nM and the IC20 (mutant HTT [3]; numeric bounds) was > 100 nM. For the same compound, the “M2-8 Cell viability” value (M2-8 cells) was “+ (cell viability is greater than 50% at the concentration of 1000 nM)”, the pIC50 [4] was 6.52 to 7.00 and the IC20 (wild-type HTT) was > 1000 nM.
In the case of `OC1(c2ccc(CN[C@@H]3CCCc4c3[nH]c3ccc(Br)nc43)cc2)CC1` [Compound 71], the “iPSC viability at IC20” value [5] was “+ (cell viability is greater than 75% at the concentration of IC20)”, the IC20 (mutant HTT [3]; class symbols) was < 100 nM and the “M2-8 Cell viability” value (M2-8 cells) was “+ (cell viability is greater than 50% at the concentration of 1000 nM)”. For the same compound, the pIC50 [4] was ≥ 7.00.
For `Brc1ccc2[nH]c3c(c2c1)CCC[C@H]3NCc1ccccn1` [Compound 33, (R)-6-bromo-N-(pyridin-2-ylmethyl)-2,3,4,9-tetrahydro-1H-carbazol-1-amine], the “LBC viability at IC20” value [1] was “* (cell viability is greater than 60% at the concentration of IC20)”, the IC20 (mutant HTT [2]) was 301 to 1000 nM and the IC20 (mutant HTT [3]; numeric bounds) was > 100 nM. The “M2-8 Cell viability” value (M2-8 cells) was “+ (cell viability is greater than 50% at the concentration of 1000 nM)”, the pIC50 [4] was 6.52 to 7.00 and the IC20 (wild-type HTT) was > 1000 nM.
With `Brc1ccc2[nH]c3c(c2c1)CCC[C@H]3NCc1cccnc1` [Compound 32, (R)-6-bromo-N-(pyridin-3-ylmethyl)-2,3,4,9-tetrahydro-1H-carbazol-1-amine] the “LBC viability at IC20” value [1] was “* (cell viability is greater than 60% at the concentration of IC20)”, the IC20 (mutant HTT [2]) was < 100 nM and the IC20 (mutant HTT [3]; numeric bounds) was > 100 nM. The “M2-8 Cell viability” value (M2-8 cells) was “+ (cell viability is greater than 50% at the concentration of 1000 nM)”, the pIC50 [4] was 6.52 to 7.00 and the IC20 (wild-type HTT) was > 1000 nM.
In the case of `C=C(C)c1ccc(CN[C@@H]2CCCc3c2[nH]c2ccc(Br)cc32)s1` [Compound 68], the “LBC viability at IC20” value [1] was “* (cell viability is greater than 60% at the concentration of IC20)”, the IC20 (mutant HTT [2]) was 101 to 300 nM and the IC20 (mutant HTT [3]; numeric bounds) was > 100 nM. For the same compound, the “M2-8 Cell viability” value (M2-8 cells) was “+ (cell viability is greater than 50% at the concentration of 1000 nM)”, the pIC50 [4] was ≥ 7.00 and the IC20 (wild-type HTT) was > 1000 nM.
With `Brc1ccc2[nH]c3c(c2n1)CCC[C@H]3NCc1ccccc1` [Compound 69] the “iPSC viability at IC20” value [5] was “+ (cell viability is greater than 75% at the concentration of IC20)”, the IC20 (mutant HTT [3]; class symbols) was < 100 nM and the “M2-8 Cell viability” value (M2-8 cells) was “+ (cell viability is greater than 50% at the concentration of 1000 nM)”. For the same compound, the pIC50 [4] was ≥ 7.00.
For `COC(=O)c1cccc(CN[C@@H]2CCCc3c2[nH]c2ccc(Br)cc32)c1` (single isomer, unassigned) [Compound 59], the “LBC viability at IC20” value [1] was “* (cell viability is greater than 60% at the concentration of IC20)”, the IC20 (mutant HTT [2]) was 101 to 300 nM and the IC20 (mutant HTT [3]; numeric bounds) was > 100 nM. For the same compound, the “M2-8 Cell viability” value (M2-8 cells) was “+ (cell viability is greater than 50% at the concentration of 1000 nM)”, the pIC50 [4] was 6.52 to 7.00 and the IC20 (wild-type HTT) was > 1000 nM.
For `OC1(c2ccc(CN[C@@H]3CCCc4c3[nH]c3ccc(Br)nc43)s2)CC1` [Compound 70], the “iPSC viability at IC20” value [5] was “+ (cell viability is greater than 75% at the concentration of IC20)”, the IC20 (mutant HTT [3]; class symbols) was < 100 nM and the “M2-8 Cell viability” value (M2-8 cells) was “+ (cell viability is greater than 50% at the concentration of 1000 nM)”. The pIC50 [4] was ≥ 7.00.
